This passage reports T/C results from PubChem BioAssay AID220 (DTP/NCI, 2004).

The experiment concerns CD8F1 mice, subcutaneous mammary adenocarcinoma, T/C%. In words: NCI In Vivo Anticancer Drug Screen. Data for tumor model Mammary Adenocarcinoma CD8F1 (subcutaneous) in CD8F1. The following applies: higher = larger tumour. The method in brief:
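Ratio of treated to vehicle-control outcome, based on either survival or tumor size, in mice bearing transplantable tumors given the test compound.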

The mark [1] stands for this setting: endpoint: median tumor weight change, dose: 250.0 mg/kg/injection, schedule: Q01DX001 (ip), vehicle: saline with Tween-80.
Setting [2] is: endpoint: median tumor weight change, dose: 500.0 mg/kg/injection, schedule: Q01DX001 (ip), vehicle: saline with Tween-80.
Setting [3] is: endpoint: median tumor weight change, dose: 125.0 mg/kg/injection, schedule: Q01DX001 (ip), vehicle: saline with Tween-80.

“And” between values parts separate entries of the source, which are not always exact repeats. Identical values can stand only once. Results filed as inconclusive are left out.

Regarding `ClCC[N+]12CC[N+](CCCl)(CC1)C2` (tested in a mixture with another compound), the T/C was 75 % of control (endpoint: median tumor weight (est.), dose: 25.0 mg/kg/injection, schedule: Q07DX005 (ip), vehicle: saline); 67 % of control (endpoint: median tumor weight (est.), dose: 50.0 mg/kg/injection, schedule: Q07DX005 (ip), vehicle: saline); 93 % of control (endpoint: median tumor weight (est.), dose: 100.0 mg/kg/injection, schedule: Q07DX005 (ip), vehicle: saline); 43 % of control (endpoint: median tumor weight (est.), dose: 200.0 mg/kg/injection, schedule: Q07DX005 (ip), vehicle: saline); 43 % of control (endpoint: median tumor weight (est.), dose: 400.0 mg/kg/injection, schedule: Q07DX005 (ip), vehicle: saline); 12 % of control (endpoint: median tumor weight (est.), dose: 600.0 mg/kg/injection, schedule: Q07DX005 (ip), vehicle: saline).
In the case of `C[CH2][Pb]([CH2]C)([CH2]C)[O]C(=O)COc1ccccc1`, the T/C runs as follows: (endpoint: mean tumor weight, dose: 0.75 mg/kg/injection, schedule: Q01DX009 (ip), vehicle: saline) 112 % of control; (endpoint: mean tumor weight, dose: 0.75 mg/kg/injection, schedule: Q07DX009 (ip), vehicle: saline) 398 % of control; (endpoint: mean tumor weight, dose: 1.5 mg/kg/injection, schedule: Q01DX009 (ip), vehicle: saline) 57 % of control; (endpoint: mean tumor weight, dose: 1.5 mg/kg/injection, schedule: Q07DX009 (ip), vehicle: saline) 192 % of control; (endpoint: mean tumor weight, dose: 3.0 mg/kg/injection, schedule: Q01DX009 (ip), vehicle: saline) 73 % of control; (endpoint: mean tumor weight, dose: 3.0 mg/kg/injection, schedule: Q07DX009 (ip), vehicle: saline) 172 % of control. Moreover, under “endpoint: mean tumor weight, dose: 6.0 mg/kg/injection, schedule: Q07DX009 (ip), vehicle: saline”, the T/C was 165 % of control.
As to `C(C#CCN1CCOCC1)#CCN1CCOCC1`, the T/C is 181 % of control (endpoint: median tumor weight (est.), dose: 25.0 mg/kg/injection, schedule: Q07DX005 (ip), vehicle: Klucel (hydroxypropylcellulose) (HPC)); 43 % of control (endpoint: median tumor weight (est.), dose: 50.0 mg/kg/injection, schedule: Q07DX005 (ip), vehicle: Klucel (hydroxypropylcellulose) (HPC)); 48 % of control (endpoint: median tumor weight (est.), dose: 100.0 mg/kg/injection, schedule: Q07DX005 (ip), vehicle: Klucel (hydroxypropylcellulose) (HPC)); 41 % of control (endpoint: median tumor weight (est.), dose: 200.0 mg/kg/injection, schedule: Q07DX005 (ip), vehicle: Klucel (hydroxypropylcellulose) (HPC)); 68 % of control (endpoint: median tumor weight (est.), dose: 400.0 mg/kg/injection, schedule: Q07DX005 (ip), vehicle: Klucel (hydroxypropylcellulose) (HPC)); 62 % of control (endpoint: median tumor weight (est.), dose: 800.0 mg/kg/injection, schedule: Q07DX005 (ip), vehicle: Klucel (hydroxypropylcellulose) (HPC)).
On to `CCCCCCCCCCCCCCCC(=O)O[C@@]12C[C@@H](C)[C@@]3(O)[C@@H](C=C(CO)C[C@]4(O)C(=O)C(C)=C[C@@H]34)[C@@H]1C2(C)C`, for which the T/C was 84 % of control (endpoint: median tumor weight (est.), dose: 0.06 mg/kg/injection, schedule: Q07DX005 (ip), vehicle: saline); 68 % of control (endpoint: median tumor weight (est.), dose: 0.12 mg/kg/injection, schedule: Q07DX005 (ip), vehicle: saline); 62 % of control (endpoint: median tumor weight (est.), dose: 0.25 mg/kg/injection, schedule: Q07DX005 (ip), vehicle: saline); 97 % of control (endpoint: median tumor weight (est.), dose: 0.5 mg/kg/injection, schedule: Q07DX005 (ip), vehicle: saline); 68 % of control (endpoint: median tumor weight (est.), dose: 1.0 mg/kg/injection, schedule: Q07DX005 (ip), vehicle: saline).
Consider `CC(=O)Oc1[nH]c(=O)c2cccc3c2c1CCC3`, for which the T/C was 155 % of control (endpoint: median tumor weight change, dose: 450.0 mg/kg/injection, schedule: Q01DX001 (ip), vehicle: saline with Tween-80) and 99 % of control (endpoint: median tumor weight change, dose: 1800.0 mg/kg/injection, schedule: Q01DX001 (ip), vehicle: saline with Tween-80).
Take `COc1ccc([I+]c2cccc(Cl)c2)cc1Cl`: the T/C was 189 % of control (endpoint: median tumor weight (est.), dose: 3.12 mg/kg/injection, schedule: Q07DX005 (ip), vehicle: saline with Tween-80); 34 % of control (endpoint: median tumor weight (est.), dose: 12.5 mg/kg/injection, schedule: Q07DX005 (ip), vehicle: saline with Tween-80); 111 % of control (endpoint: median tumor weight (est.), dose: 50.0 mg/kg/injection, schedule: Q07DX005 (ip), vehicle: saline with Tween-80).
As to `N=c1c(C(=O)OCc2ccccc2)ncc(CCl)n1O`, the T/C runs as follows: under setting [1], 78 % of control and 94 % of control; under setting [2], 80 % of control and 82 % of control; (endpoint: median tumor weight change, dose: 1000.0 mg/kg/injection, schedule: Q01DX001 (ip), vehicle: saline with Tween-80) 65 % of control and 81 % of control.
For `Nc1ncnc2nc[nH]c12`, the T/C by setting is: (endpoint: median tumor weight (est.), dose: 64.0 mg/kg/injection, schedule: Q07DX005 (ip), vehicle: Klucel (hydroxypropylcellulose) (HPC)) 75 % of control and 77 % of control and 78 % of control; (endpoint: median tumor weight (est.), dose: 512.0 mg/kg/injection, schedule: Q07DX005 (ip), vehicle: Klucel (hydroxypropylcellulose) (HPC)) 17 % of control and 31 % of control.
For `C[Si](C)(C)O/C=C1\CCCCC1=O`, the T/C was 70 % of control (endpoint: median tumor weight change, dose: 62.0 mg/kg/injection, schedule: Q01DX001 (ip), vehicle: saline with Tween-80); 119 % of control (endpoint: median tumor weight change, dose: 62.5 mg/kg/injection, schedule: Q01DX001 (ip), vehicle: saline with Tween-80); 54 % of control and 69 % of control under setting [3]; 93 % of control under setting [1].
As to `CCc1c(CC(=O)O)c2cc(C)ccc2n1Cc1ccc(Cl)cc1`, the T/C was 89 % of control (endpoint: median tumor weight change, dose: 125.0 mg/kg/injection, schedule: Q01DX001 (ip), vehicle: Klucel (hydroxypropylcellulose) (HPC)) and 101 % of control (endpoint: median tumor weight change, dose: 250.0 mg/kg/injection, schedule: Q01DX001 (ip), vehicle: Klucel (hydroxypropylcellulose) (HPC)).
On to `CC1(C)OC1CS(=O)c1ccccc1` (stereo unspecified), for which the T/C is 160 % of control under setting [3]; 83 % of control and 92 % of control under setting [1]; 72 % of control and 94 % of control under setting [2].
Consider `Nc1nc(=S)c2[nH]cnc2[nH]1`, for which the T/C reads like this: (endpoint: median tumor weight (est.), dose: 1.0 mg/kg/injection, schedule: Q07DX005 (ip), vehicle: Klucel (hydroxypropylcellulose) (HPC)) 71 % of control; (endpoint: median tumor weight (est.), dose: 2.0 mg/kg/injection, schedule: Q07DX005 (ip), vehicle: Klucel (hydroxypropylcellulose) (HPC)) 74 % of control; (endpoint: median tumor weight (est.), dose: 4.0 mg/kg/injection, schedule: Q07DX005 (ip), vehicle: Klucel (hydroxypropylcellulose) (HPC)) 42 % of control; (endpoint: median tumor weight (est.), dose: 8.0 mg/kg/injection, schedule: Q07DX005 (ip), vehicle: Klucel (hydroxypropylcellulose) (HPC)) 20 % of control; (endpoint: median tumor weight (est.), dose: 8.0 mg/kg/injection, schedule: Q07DX005 (ip), vehicle: other) 29 % of control; (endpoint: median tumor weight (est.), dose: 12.0 mg/kg/injection, schedule: Q07DX005 (ip), vehicle: other) 19 % of control. Moreover, the T/C runs as follows: (endpoint: median tumor weight (est.), dose: 16.0 mg/kg/injection, schedule: Q07DX005 (ip), vehicle: Klucel (hydroxypropylcellulose) (HPC)) 7 % of control; (endpoint: median tumor weight (est.), dose: 16.0 mg/kg/injection, schedule: Q07DX005 (ip), vehicle: other) 16 % of control.
